Reference: PMC6199744, “Development of Chemical Proteomics for the Folateome and Analysis of the Kinetoplastid Folateome” (ACS Infectious Diseases, 2018)
Like-named read-outs stand apart in the source and are kept apart here.

Assays:
Type in all cases: binding
[1] = molecular target: T1, HeLa cell extract proteins (Homo sapiens, UniProt Q86X55)
T1 construct: endogenous in cells; host or cells: HeLa cell extract
T1 sequence (Q86X55 1-608): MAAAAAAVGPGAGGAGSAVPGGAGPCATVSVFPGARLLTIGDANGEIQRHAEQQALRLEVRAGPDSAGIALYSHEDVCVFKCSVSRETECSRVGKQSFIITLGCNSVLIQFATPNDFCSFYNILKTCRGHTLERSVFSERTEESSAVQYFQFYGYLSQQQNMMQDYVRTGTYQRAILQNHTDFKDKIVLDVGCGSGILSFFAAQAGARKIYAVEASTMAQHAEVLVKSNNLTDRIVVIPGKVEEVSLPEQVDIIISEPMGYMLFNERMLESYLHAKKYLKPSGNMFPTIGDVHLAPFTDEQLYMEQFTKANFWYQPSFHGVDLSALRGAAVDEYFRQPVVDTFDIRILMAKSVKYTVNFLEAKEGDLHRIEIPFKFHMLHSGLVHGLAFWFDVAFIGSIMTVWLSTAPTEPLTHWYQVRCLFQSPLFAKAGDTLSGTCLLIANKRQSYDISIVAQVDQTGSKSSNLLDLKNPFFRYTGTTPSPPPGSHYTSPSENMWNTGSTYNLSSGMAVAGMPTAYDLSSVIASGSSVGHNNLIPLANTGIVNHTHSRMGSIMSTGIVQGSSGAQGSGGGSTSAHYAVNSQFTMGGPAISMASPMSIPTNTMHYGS

[2] = molecular target: T2, HeLa cell extract proteins (Homo sapiens, UniProt Q14204)
T2 construct: endogenous in cells; host or cells: HeLa cell extract

[3] = molecular target: T3, HeLa cell extract proteins (Homo sapiens, UniProt P14324)
T3 construct: endogenous in cells; host or cells: HeLa cell extract
T3 sequence (P14324 1-419): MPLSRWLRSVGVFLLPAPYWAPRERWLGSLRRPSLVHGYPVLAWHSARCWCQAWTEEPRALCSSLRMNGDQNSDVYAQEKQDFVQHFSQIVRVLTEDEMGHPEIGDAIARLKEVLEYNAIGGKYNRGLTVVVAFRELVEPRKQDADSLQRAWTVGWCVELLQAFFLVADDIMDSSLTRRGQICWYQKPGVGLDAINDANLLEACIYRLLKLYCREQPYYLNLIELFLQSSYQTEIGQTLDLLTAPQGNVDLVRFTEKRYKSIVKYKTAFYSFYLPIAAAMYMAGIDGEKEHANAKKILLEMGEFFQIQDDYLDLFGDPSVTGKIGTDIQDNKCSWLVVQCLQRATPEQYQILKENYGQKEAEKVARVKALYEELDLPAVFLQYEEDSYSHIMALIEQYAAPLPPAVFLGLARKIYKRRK

[4] = molecular target: T4, HeLa cell extract proteins (Homo sapiens, UniProt Q15392)
T4 construct: endogenous in cells; host or cells: HeLa cell extract
T4 sequence (Q15392 23-516): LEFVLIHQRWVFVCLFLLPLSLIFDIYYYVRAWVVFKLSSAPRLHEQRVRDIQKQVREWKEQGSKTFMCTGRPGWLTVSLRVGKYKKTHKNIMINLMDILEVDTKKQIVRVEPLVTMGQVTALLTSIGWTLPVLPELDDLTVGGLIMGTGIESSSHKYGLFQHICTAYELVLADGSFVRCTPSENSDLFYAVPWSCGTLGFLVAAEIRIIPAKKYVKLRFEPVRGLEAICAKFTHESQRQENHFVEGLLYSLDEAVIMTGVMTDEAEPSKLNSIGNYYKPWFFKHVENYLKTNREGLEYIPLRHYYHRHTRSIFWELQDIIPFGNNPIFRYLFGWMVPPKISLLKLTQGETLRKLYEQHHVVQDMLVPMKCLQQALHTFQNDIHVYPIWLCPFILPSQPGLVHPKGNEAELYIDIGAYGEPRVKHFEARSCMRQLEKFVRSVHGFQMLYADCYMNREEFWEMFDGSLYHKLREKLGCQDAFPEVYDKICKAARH

[5] = molecular target: T5, HeLa cell extract proteins (Homo sapiens, UniProt P07737)
T5 construct: endogenous in cells; host or cells: HeLa cell extract

[6] = molecular target: T6, HeLa cell extract proteins (Homo sapiens, UniProt Q9Y265)
T6 construct: endogenous in cells; host or cells: HeLa cell extract

[7] = molecular target: T7, HeLa cell extract proteins (Homo sapiens, UniProt P27824)
T7 construct: endogenous in cells; host or cells: HeLa cell extract
T7 sequence (P27824 21-592): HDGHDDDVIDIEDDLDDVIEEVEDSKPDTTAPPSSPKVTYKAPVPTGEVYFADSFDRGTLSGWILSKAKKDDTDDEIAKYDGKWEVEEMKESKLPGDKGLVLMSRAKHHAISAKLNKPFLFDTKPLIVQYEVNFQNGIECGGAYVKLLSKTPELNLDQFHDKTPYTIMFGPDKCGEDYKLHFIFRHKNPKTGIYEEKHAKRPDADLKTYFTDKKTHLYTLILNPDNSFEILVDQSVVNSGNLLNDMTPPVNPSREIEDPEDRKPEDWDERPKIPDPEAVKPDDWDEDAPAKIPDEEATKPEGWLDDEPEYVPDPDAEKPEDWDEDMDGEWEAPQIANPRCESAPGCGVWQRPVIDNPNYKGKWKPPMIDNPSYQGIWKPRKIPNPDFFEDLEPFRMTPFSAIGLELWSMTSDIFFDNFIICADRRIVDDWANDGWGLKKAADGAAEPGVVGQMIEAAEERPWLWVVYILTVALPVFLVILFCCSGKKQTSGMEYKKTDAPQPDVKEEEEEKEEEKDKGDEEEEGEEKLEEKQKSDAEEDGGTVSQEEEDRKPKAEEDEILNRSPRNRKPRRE

[8] = HeLa, protein DHCR24 (24-DEHYDROC[…] PRECURSOR)
[9] = HeLa, protein PFN1 (PROFILIN-1.)

T5 sequence (P07737 whole entry): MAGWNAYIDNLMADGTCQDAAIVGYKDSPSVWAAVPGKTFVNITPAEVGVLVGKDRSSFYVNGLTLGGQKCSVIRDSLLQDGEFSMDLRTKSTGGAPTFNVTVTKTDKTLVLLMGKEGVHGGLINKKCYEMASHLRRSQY
T6 sequence (Q9Y265 whole entry): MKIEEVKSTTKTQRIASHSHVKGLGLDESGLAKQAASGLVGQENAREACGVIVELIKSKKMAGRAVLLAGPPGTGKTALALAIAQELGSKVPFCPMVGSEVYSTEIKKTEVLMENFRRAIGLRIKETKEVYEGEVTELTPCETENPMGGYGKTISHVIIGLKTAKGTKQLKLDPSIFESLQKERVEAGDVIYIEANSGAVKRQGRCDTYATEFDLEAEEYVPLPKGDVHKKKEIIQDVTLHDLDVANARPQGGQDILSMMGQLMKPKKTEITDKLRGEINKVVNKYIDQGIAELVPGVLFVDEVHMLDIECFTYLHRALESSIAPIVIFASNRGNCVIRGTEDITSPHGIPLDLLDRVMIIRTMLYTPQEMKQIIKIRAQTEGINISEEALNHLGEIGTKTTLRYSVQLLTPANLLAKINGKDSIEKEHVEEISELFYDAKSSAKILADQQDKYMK

Structure (SMILES) | fold changes relative to vehicle control ([1]; HeLa, protein CARM1) | fold changes relative to vehicle control ([2]; HeLa, captured protein DYNC1H1) | fold changes relative to vehicle control ([3]; HeLa, captured protein FDPS) | fold changes relative to vehicle control ([5]; HeLa, protein PFN1) | fold changes relative to vehicle control ([6]; HeLa, protein RUVBL1) | fold changes relative to vehicle control ([7]; HeLa, captured protein CANX) | fold changes relative to vehicle control ([2]; protein DYNC1H1, HeLa) | fold changes relative to vehicle control ([3]; protein FDPS, HeLa) | fold changes relative to vehicle control ([4]; protein DHCR24, HeLa) | fold changes relative to vehicle control [5, 9] [fold] | fold changes relative to vehicle control ([6]; protein RUVBL1, HeLa) | fold changes relative to vehicle control ([7]; protein CANX, HeLa) | also measured
Nc1nc2c(c(=O)[nH]1)N(C=O)C(CNc1ccc(C(=O)N[C@@H](CCC(=O)O)C(=O)O)cc1)CN2 (stereo partly shown) [LEU, leucovorin] | 0.95 | 1.02 | 1.05 | 1.22 | 1.06 | 1.09 |  |  |  |  |  |  | fold changes relative to vehicle control [4, 8]: 1.13
Nc1nc2[nH]cc(CCc3ccc(C(=O)N[C@@H](CCC(=O)O)C(=O)O)cc3)c2c(=O)[nH]1 [PTX, pemetrexed] |  |  |  |  |  |  |  |  |  |  |  |  | fold changes relative to vehicle control [1]: 0.9; fold changes relative to vehicle control [2]: 0.99; fold changes relative to vehicle control [3]: 1.08; fold changes relative to vehicle control [4]: 1.05; fold changes relative to vehicle control [5]: 1.43; fold changes relative to vehicle control [6]: 0.92; fold changes relative to vehicle control [7]: 1.25
CCCCCCOc1ccc(Cc2cnc(N)nc2N)cc1 [compound 1] | 1.02 |  |  |  |  |  | 1 | 1.17 | 1.03 | 1.64 | 1.32 | 1.3 | 
CCCCCCOc1cccc(Cc2cnc(N)nc2N)c1 [compound 2] | 0.98 |  |  |  |  |  | 1.03 | 2.08 | 0.83 | 2.32 | 1.47 | 2.38 | 
Nc1nc2cccc(-c3ccccc3)c2n1Cc1ccc(Cl)c(Cl)c1 [compound 3] | 0.95 |  |  |  |  |  | 1.07 | 0.87 | 1.02 | 1.03 | 1.04 | 0.92 | 
NCCOCCOCC(=O)Nc1nc2ncc(CNc3ccc(C(=O)NC(CCC(=O)O)C(=O)O)cc3)nc2c(=O)[nH]1 (stereo not shown) [compound 6] | 0.89 | 1.11 | 1.29 | 1.47 | 1.07 | 1.35 |  |  |  |  |  |  | fold changes relative to vehicle control ([4]; HeLa, protein DHCR24 (24-DEHYDROCHOLESTEROL REDUCTASE PRECURSOR)): 0.88
NCCCNc1ccc(C(=O)NC(CCC(=O)O)C(=O)O)cc1 (stereo not shown) [compound 7] | 1 | 1.1 | 0.97 | 1.21 | 1.2 | 1.06 |  |  |  |  |  |  | fold changes relative to vehicle control [4, 8]: 1.03
